According to patent US20260191863A1, “PYRROLOPYRIMIDINE COMPOSITIONS FOR TREATMENT OF ITK MEDIATED CONDITIONS” (ACLARIS THERAPEUTICS, INC., priority 2022, published 2026):
Values joined by “and” are separate entries in the source; they are usually repeats but may differ in a detail not shown here. Equal entries are not always repeated. “Also recorded” adds a separate entry of the source. Where two headings read alike, the source gives them in different places.

Key:
ITK & JAK (IFNγ protein) = assay: Pre-clinical human whole blood αCD3 + IL-15/IFNγ (18 hr); assay type: cell-based
[1] = 13 week toxicology and toxicokinetic study in cynomolgus monkeys; assay type: in vivo, cynomolgus monkey; details: for AUC(0-t) / Cmax: in vivo
Description: Purpose: Evaluation of toxicity and toxicokinetic (TK) for Compound I, following daily dosing for 13 weeks.

ITK = target: T1, ITK (Homo sapiens, UniProt Q08881); assay: Cell IC50 ITK (Jurkat/pPLCγ1); assay type: cell-based
T1 construct: (Jurkat/pPLCγ1); endogenous in cells; host or cells: Jurkat
T1 sequence (Q08881 1-620): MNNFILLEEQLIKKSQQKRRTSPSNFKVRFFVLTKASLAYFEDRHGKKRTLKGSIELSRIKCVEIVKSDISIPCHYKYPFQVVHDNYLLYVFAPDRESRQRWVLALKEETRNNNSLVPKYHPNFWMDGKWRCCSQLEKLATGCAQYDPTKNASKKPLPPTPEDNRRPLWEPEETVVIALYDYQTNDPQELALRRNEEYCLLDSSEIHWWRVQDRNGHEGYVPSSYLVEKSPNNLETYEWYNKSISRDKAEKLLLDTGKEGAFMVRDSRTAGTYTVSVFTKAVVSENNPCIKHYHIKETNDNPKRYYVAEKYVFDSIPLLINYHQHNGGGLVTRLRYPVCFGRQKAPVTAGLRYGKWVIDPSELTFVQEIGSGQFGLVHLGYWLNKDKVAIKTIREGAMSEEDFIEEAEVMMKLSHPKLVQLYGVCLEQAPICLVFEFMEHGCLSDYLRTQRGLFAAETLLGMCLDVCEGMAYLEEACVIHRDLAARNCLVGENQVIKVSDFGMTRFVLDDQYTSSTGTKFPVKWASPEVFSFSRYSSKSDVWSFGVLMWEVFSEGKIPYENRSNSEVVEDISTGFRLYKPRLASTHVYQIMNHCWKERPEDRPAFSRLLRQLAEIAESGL

[2] = system: ankle diameter swelling (Antigen Induced Arthritis); assay: Rat Antigen Induced Arthritis (AIA) model, ankle diameter swelling; assay type: in vivo; details: PO from day 6
Description: The study evaluated the rat AIA kinetics of ankle diameter swelling. Therapeutic model with PO dosing beginning on day 6.

ITK and JAK3 = assay: MAD exploratory PD, all biomarker readouts; assay type: in vivo, human
Procedure: (§1) Exploratory Endpoints—Mean change from baseline in cellular, extracellular (secreted), and/or message markers of inflammation.
Results: 57 subjects completed the MAD study. […] Peak concentrations were reached within 2 hours after dosing.

[3] = Phase 1 MAD study: safety and tolerability; assay type: in vivo, human; details: for AE of Special Interest (events) / AEs (events) / ≥Grade 2 (events): 14 days
Description: Primary Endpoints—Number and percent of adverse events (AEs) and serious adverse events (SAEs); mean change from baseline in laboratory values, vital signs, and electrocardiograms (ECGs).
Overall Design—This was a randomized, Investigator and participant-blind. Sponsor-unblinded, placebo-controlled study designed to evaluate the safety, tolerability, PK, and PD of Compound I in healthy participants. The study consisted of multiple cohorts assessing ascending doses of Compound I.
Approximately 60 participants were enrolled into 5 cohorts. At each dose level/cohort, a total of 10 participants were randomized to receive 2 weeks of oral doses of Compound I (n=8) or placebo (n=2). In Cohort 3, 20 participants were randomized to receive multiple oral doses of Compound I QD (n=8), Compound I TID (n=8), placebo QD (n=2), or placebo TID (n=2).
The study started with a planned dose of 5 mg twice daily (BID). Escalation to the next higher cohort was dependent on safety and PK data from all participants in the previous cohorts and was based on data from at least 6 participants up to at least 48 hours after the last dose. In no instance did the dose escalation steps exceed 3-fold the prior dose level.

[4] = system: IL15 stimulated IFNγ protein; assay: Pre-clinical human whole blood IL-15/IFNγ (5 hr); assay type: cell-based
JAK2 = target: T2, JAK2 (Homo sapiens, UniProt O60674); assay: Cell IC50 JAK2; assay type: cell-based
T2 construct: endogenous in cells
T2 sequence (O60674 whole entry): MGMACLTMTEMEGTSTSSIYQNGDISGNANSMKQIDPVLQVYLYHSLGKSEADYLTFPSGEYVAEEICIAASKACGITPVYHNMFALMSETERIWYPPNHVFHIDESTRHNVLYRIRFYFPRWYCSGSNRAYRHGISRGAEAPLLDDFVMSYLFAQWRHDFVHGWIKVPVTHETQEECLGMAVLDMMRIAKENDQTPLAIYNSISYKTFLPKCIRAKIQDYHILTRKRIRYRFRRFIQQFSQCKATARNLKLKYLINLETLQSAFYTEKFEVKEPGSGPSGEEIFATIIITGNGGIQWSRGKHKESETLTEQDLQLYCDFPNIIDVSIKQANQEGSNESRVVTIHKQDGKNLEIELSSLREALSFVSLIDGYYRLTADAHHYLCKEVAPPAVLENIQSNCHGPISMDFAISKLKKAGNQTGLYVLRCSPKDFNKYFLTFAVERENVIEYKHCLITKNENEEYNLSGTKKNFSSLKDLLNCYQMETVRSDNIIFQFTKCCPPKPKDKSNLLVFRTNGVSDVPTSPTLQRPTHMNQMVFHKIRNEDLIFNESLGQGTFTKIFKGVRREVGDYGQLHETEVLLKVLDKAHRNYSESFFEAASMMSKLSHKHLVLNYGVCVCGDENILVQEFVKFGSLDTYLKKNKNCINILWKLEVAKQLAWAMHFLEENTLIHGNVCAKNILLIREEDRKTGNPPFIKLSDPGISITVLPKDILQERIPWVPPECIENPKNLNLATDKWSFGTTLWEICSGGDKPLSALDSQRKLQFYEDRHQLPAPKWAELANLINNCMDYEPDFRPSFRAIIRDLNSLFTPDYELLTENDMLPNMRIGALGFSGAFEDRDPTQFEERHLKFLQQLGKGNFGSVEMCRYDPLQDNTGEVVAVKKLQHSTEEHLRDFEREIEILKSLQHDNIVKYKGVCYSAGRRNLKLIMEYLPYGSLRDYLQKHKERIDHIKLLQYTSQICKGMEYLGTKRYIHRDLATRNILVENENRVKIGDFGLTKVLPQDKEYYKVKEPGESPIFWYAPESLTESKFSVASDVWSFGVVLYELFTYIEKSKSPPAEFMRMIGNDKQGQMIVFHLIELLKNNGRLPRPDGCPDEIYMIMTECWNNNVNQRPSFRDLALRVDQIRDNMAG

[5] = system: αCD3 & αCD28 stimulated IL2mRNA; assay: MAD ex vivo PD: αCD3 & αCD28 stimulated IL2 mRNA; assay type: in vivo; details: Homo sapiens
Description: as §1
EC50 and IC50 data for αCD3 & αCD28 stimulated IL2mRNA, IL15 stimulated IFNγ protein, and αCD3 & IL15 stimulated IFNγ protein is shown in table 9.

## C=CC(=O)N1C[C@H](Nc2ncnc3[nH]cc([C@H]4CC4(F)F)c23)CC[C@@H]1C [Compound I, 1-((2S,5R)-5-((5-((R)-2,2-difluorocyclopropyl)-7H-pyrrolo[2,3-d]pyrimidin-4-yl)amino)-2-methylpiperidin-1-yl)prop-2-en-1-one]
ITK & JAK (IFNγ protein)
  Potency relative to Ritlecitinib, αCD3 + IL-15/IFNγ (18 hr): (3.3 fold*)
ITK & JAK (IFNγ protein); Homo sapiens
  IC50: 0.0036 µg/mL and 10.1 nM
ITK & JAK (IFNγ protein); Homo sapiens, 18 h, read-out: Human Whole Blood EC50, αCD3 + IL-15/IFNγ (18 hr)
  EC50: 10 nM
ITK & JAK (IFNγ protein); Homo sapiens, read-out: Pre-clinical EC50
  EC50: 10.2 ± 4.1 nM
ITK & JAK (IFNγ protein); human whole blood dual stimulation, read-out: Human Compound I Cp to reach HWB dual stim EC50 (in vitro report)
  EC50: ≥ 4.19 ng/mL
[1]; cynomolgus monkey, daily dosing 13 weeks
  No observed adverse effect level: 3 mpk
[1]; cynomolgus monkey, 3 mg/kg, monkey 3 mpk, Day 1, read-out: AUC0-24
  AUC(0-t): 153 ± 29.1 ng·h/mL
[1]; cynomolgus monkey, 3 mg/kg, monkey 3 mpk, Day 1, read-out: Cmax
  Cmax: 104 ± 48.9 ng/mL
[1]; cynomolgus monkey, 3 mg/kg, monkey 3 mpk, Day 28, read-out: AUC0-24
  AUC(0-t): 412 ± 191 ng·h/mL
[1]; cynomolgus monkey, 3 mg/kg, monkey 3 mpk, Day 28, read-out: Cmax
  Cmax: 304 ± 156 ng/mL
[1]; cynomolgus monkey, 3 mg/kg, monkey, NOAEL 3 mpk, read-out: AUC0-24 h at NOAEL
  AUC(0-t): 356 ng·h/mL
[1]; cynomolgus monkey, 3 mg/kg, monkey, NOAEL 3 mpk, read-out: Cmax at NOAEL
  Cmax: 232 ng/mL
[1]; cynomolgus monkey, 6 mg/kg, monkey 6 mpk, Day 1, read-out: AUC0-24
  AUC(0-t): 692 ± 223 ng·h/mL
[1]; cynomolgus monkey, 6 mg/kg, monkey 6 mpk, Day 1, read-out: Cmax
  Cmax: 401 ± 153 ng/mL
[1]; cynomolgus monkey, 6 mg/kg, monkey 6 mpk, Day 28, read-out: AUC0-24
  AUC(0-t): 1880 ± 911 ng·h/mL
[1]; cynomolgus monkey, 6 mg/kg, monkey 6 mpk, Day 28, read-out: Cmax
  Cmax: 985 ± 475 ng/mL
[1]; cynomolgus monkey, 6 mg/kg, monkey 6 mpk, Day 91, read-out: AUC0-24
  AUC(0-t): 1410 ± 6190 ng·h/mL
[1]; cynomolgus monkey, 6 mg/kg, monkey 6 mpk, Day 91, read-out: Cmax
  Cmax: 784 ± 512 ng/mL
[1]; cynomolgus monkey, 12 mg/kg, monkey 12 mpk, Day 1, read-out: AUC0-24
  AUC(0-t): 2510 ± 1420 ng·h/mL
[1]; cynomolgus monkey, 12 mg/kg, monkey 12 mpk, Day 1, read-out: Cmax
  Cmax: 975 ± 648 ng/mL
[1]; cynomolgus monkey, 12 mg/kg, monkey 12 mpk, Day 28, read-out: AUC0-24
  AUC(0-t): 6930 ± 3790 ng·h/mL
[1]; cynomolgus monkey, 12 mg/kg, monkey 12 mpk, Day 28, read-out: Cmax
  Cmax: 2160 ± 724 ng/mL
[1]; cynomolgus monkey, 12 mg/kg, monkey 12 mpk, Day 91, read-out: AUC0-24
  AUC(0-t): 6430 ± 3660 ng·h/mL
[1]; cynomolgus monkey, 12 mg/kg, monkey 12 mpk, Day 91, read-out: Cmax
  Cmax: 1960 ± 677 ng/mL
[1]; monkey 3 mpk
  Ratio over time (D 91/D 1) AUC: 2.4
  Ratio over time (D 91/D 1) Cmax: 2.8
[1]; monkey 6 mpk
  Ratio over time (D 91/D 1) AUC: 2.2
  Ratio over time (D 91/D 1) Cmax: 2.2
[1]; monkey 12 mpk
  Ratio over time (D 91/D 1) AUC: 2.6
  Ratio over time (D 91/D 1) Cmax: 2.5
[1]; monkey, 12 mpk, 12 mg/kg
  Morbidity / un-scheduled sacrifice: morbidity and significant symptoms necessitating un-scheduled sacrifice and dosing holiday
[1]; monkey, 13 weeks
  Effects on body weight (overall), food consumption (overall), clinical pathology in general, anatomic pathology, ophthalmology: No adverse effects observed
  Opportunistic infection in GI tract: dose-dependent opportunistic infection in GI tract
[1]; monkey, more significant and persistent in mid/high dose groups
  Adverse effects: Liquid and non-formed feces associated with dehydration
ITK
  Potency on ITK relative to ritlecitinib: ~ 100 ×
  Potency relative to Ritlecitinib, ITK (Jurkat/pPLCγ1): 81 fold
  T cell receptor blockade, Compound I vs CsA: equipotent
ITK; Jurkat, pPLCγ1
  IC50: 8 nM
ITK; cell IC50 ITK vs JAK3
  Selectivity for ITK (over JAK3): 3 fold
[2]; rat AIA, 5 mpk BID, 15 BID and 30 QD
  Ankle diameter swelling, comparison of regimens: No significant difference
[2]; rat arthritis model
  BID vs QD dosing efficacy: BID dosing is more effective than QD dosing
ITK and JAK3; 10 mg TID, 15 mg BID, 30 mg BID doses
  Inhibition of biomarker readouts, comparison of regimens: inhibited biomarker readouts to a similar extent
ITK and JAK3; MAD
  Change of MAD Day 1 EC50 vs Days 7 & 15 EC50: No significant change
  Modulation of all PD biomarker readouts: dose- and time-dependent modulation; also recorded: dose and time dependent modulation
ITK and JAK3; MAD, 15-40 mg BID, across the dosing intervals
  Inhibition of biomarker readouts: 50-90%
ITK and JAK3; MAD, 2 hours post treatment, doses of 15 mg to 80 mg
  Inhibition of biomarker readouts: Near-complete inhibition
[3]; MAD
  Deaths, serious AEs, discontinuations due to AEs: no deaths, serious AEs, or discontinuations due to AEs
  Safety and tolerability conclusion: safe and well tolerated
[3]; MAD 5 mg BID
  Notable events: single episode of transient diarrhea: 2 subjects
[3]; MAD 40 mg BID
  Notable events: single dermatomal zoster rash 1 week after dosing ended: 1 subject
[3]; MAD cohort 5 mg BID
  AE of Special Interest (events): 3
  AEs (events): 9
  ≥Grade 2 (events): 1
[3]; MAD cohort 10 mg TID
  AE of Special Interest (events): 0
  AEs (events): 3
  ≥Grade 2 (events): 0
[3]; MAD cohort 15 mg BID
  AE of Special Interest (events): 0
  AEs (events): 0
  ≥Grade 2 (events): 0
[3]; MAD cohort 25 mg BID
  AE of Special Interest (events): 1
  AEs (events): 4
  ≥Grade 2 (events): 0
[3]; MAD cohort 30 mg QD
  AE of Special Interest (events): 0
  AEs (events): 3
  ≥Grade 2 (events): 0
[3]; MAD cohort 40 mg BID
  AE of Special Interest (events): 1
  AEs (events): 4
  ≥Grade 2 (events): 1
[3]; MAD, up to 2 weeks administration in HV
  Safety and tolerability: safe and tolerable
[4]
  Potency relative to Ritlecitinib, IL-15/IFNγ (5 hr): (6.5 fold*)
[4]; Homo sapiens
  IC50: 0.0029 µg/mL and 8 nM
[4]; Homo sapiens, 5 h, read-out: Human Whole Blood EC50, IL-15/IFNγ (5 hr)
  EC50: 8 nM
JAK2
  Cell IC50, JAK2: Inactive
[5]
  EC50: 0.0019 µg/mL and 5.3 nM
